Reference: a melting point compilation (Tetko et al.; mined from patent text by program, amines drawn as free bases though some values may be those of a salt)

Structure (SMILES)	melting point
O=C(c1ccc2nonc2c1)N1CCCCC1	88.5 to 90.5 °C
CCOC(=O)Cc1cnc(Nc2n[nH]c3ccc(-c4ncccc4Cl)cc23)s1	259 to 261 °C
CNS(=O)(=O)c1ccc(C(=O)C=Cc2cc(-c3cc4ccccc4n3C)c(OC)cc2OC)cc1	129 to 131 °C
O=C1Nc2ccccc2C1c1ncnc2c1cnn2C1CCCC1 (centres undefined)	228 to 231 °C
OCc1cc2ccccc2cc1CO	161 to 162 °C
COc1ccc(CC2CCN(C(=O)NC(=O)c3ccc(O)cc3)CC2)cc1	190 °C
C=C(C(=O)NS(=O)(=O)c1cccc(C#N)c1)c1ccc(OCCOC)cc1Oc1ncc(C(F)(F)F)cc1Cl	195 to 197 °C
CCn1ccc2c(C)nc3c(Br)cnn3c21	113 to 114 °C
CC(C)(C)C1=CC(=O)C=CC1=O	55 to 60 °C
CC(=O)Oc1ccc(-c2nc3n(c2-c2ccc(OC(C)=O)cc2)CCS3)cc1	172 to 173 °C
O=CN=C1SCCN1Cc1ccc(Cl)nc1	99 to 100 °C
COc1ccc(Cn2c(=O)c3cc([N+](=O)[O-])ccc3n(CCCCBr)c2=O)cc1	143 to 144 °C
COc1ccc(-c2ccc3nnn(Cc4ccc5ncccc5c4)c3n2)cc1F	187 to 190 °C
O=c1cc(Cl)cnn1CC1CCCCC1	81.6 to 81.8 °C
CCCCCOC1CCC(=O)N1 (centres undefined)	42 to 43 °C
CCOC(=O)C(=O)Nc1sccc1C(N)=O	186 to 187 °C
CC(C)(C)c1ccc(C(=O)Nc2cn3nc(NC4CC4)ccc3n2)cc1	274 to 275 °C
COC(=O)Cc1cn(-c2ccccc2)nc1OCc1ccc(OCc2nc(-c3ccccc3)oc2C)nc1	96 to 97 °C
COC(=O)[C@H]1CC[C@@H](c2ccc(F)cc2)N1S(=O)(=O)c1ccc(C)cc1 (racemic)	91 °C
Cc1c(C)c2c(c(C)c1O)C(=O)CC(C)(COc1ccc([N+](=O)[O-])cc1)O2 (centres undefined)	199 to 204 °C
CN(C(=O)OC(C)(C)C)c1ccc(-c2ncn(-c3ccc(OC(F)(F)F)cc3)n2)cc1	125 to 128 °C
N#CN=C(Nc1ccc(NCCF)nc1)Oc1ccccc1	157 to 158 °C
Cc1cc(C2=C(c3ccc(S(C)(=O)=O)cc3)C(C)(C)OC2=O)ccc1-c1cscn1	80.3 °C
N#Cc1ccc(-c2ccc(-c3ccoc3)cc2)cc1	199 to 203 °C
N#Cc1nn(-c2c(Cl)cc(C(F)(F)F)cc2Cl)c(N)c1-c1cc(Cl)cc(Cl)c1	228 to 230 °C

The remaining lines, values ahead:

melting point	Structure (SMILES)
138 to 140 °C	O=C(CCCCCc1cccc2cncn12)NO
158 to 161 °C	COc1cc(OC)nc(Nc2ccc(C)cc2[N+](=O)[O-])n1
120 to 122 °C	CCNC(=S)N1CCN(c2cncc(OC)n2)CC1
123 to 125 °C	Nc1ccc(CS(=O)(=O)NCCc2ccccc2)cc1
138 to 139 °C	Cc1nn(-c2ccccn2)cc1COc1ccc(COc2ncccc2CC#N)cc1
117 to 119 °C	COc1ccc(S(=O)(=O)C(CC=C(C)C)(Cc2cccnc2)C(=O)O)cc1 (centres undefined)
134 to 136 °C	CCCN1CCN(C2=Nc3cc(Br)ccc3N3CCc4cccc2c43)CC1
59 to 62 °C	CSc1nccn1-c1cccc(C(=O)CC(=O)Nc2cc(-c3ccccc3F)c(OC(C)(C)C)cc2NC(=O)OC(C)(C)C)c1
159 to 161 °C	CN(C1CC(C)(C)Oc2ccc(O)cc21)S(C)(=O)=O (centres undefined)
268 to 270 °C	COc1cc2[nH]c(N(C)Cc3cccc(N)c3)nc(=O)c2c(C)c1OC
179 °C	CCn1ncnc1COc1nn2c(-c3ccc(F)cc3)nncc2c1-c1ccccc1F
64.7 to 66.1 °C	CCOC(=O)NCCS(=O)CC(=O)NCC=CCOc1cccc(CN2CCCCC2)c1 (centres undefined)
110 to 115 °C	O=S(=O)(c1ccccc1)c1ccc2cnc(Nc3ccc(N4CCOCC4)cc3)nn12
208 to 209 °C	CC(=O)c1c(C=O)[nH]c(-c2ccncc2)c1C
